Read-outs that look alike come from different tables or passages of the source.
Columns and labels:
Experiment in all cases: MIC of compounds alone and combined with antibacterials, broth microdilution (CLSI)
Format in all cases: cell-based
[1] = tested on: Providencia stuartii (PST) isolates; details: for MIC ATB in combination: AF1 @ 4 μg/mL; for MIC: Providencia stuartii, ATB alone, read-out: MIC
Outline: (§1)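 Inoculum 5·10^5 CFU/mL (final), log phase, ca-MHB; 16-20 h, 35° C, ambient air. MIC = lowest conc. with no visible growth; ATB MIC read at each compound level.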

[2] = tested on: Citrobacter koseri (CKR) isolates; details: for MIC ATB in combination: AF1 @ 4 μg/mL; for MIC: Citrobacter koseri, ATB alone
Outline: as §1

[3] = tested on: Klebsiella oxytoca (KOX) isolates; details: for MIC ATB in combination: AF1 @ 4 μg/mL; for MIC: Klebsiella oxytoca, ATB alone
Outline: as §1

[4] = tested on: Klebsiella pneumoniae (KPN) isolates; details: for MIC ATB in combination: AF1 @ 4 μg/mL; for MIC: Klebsiella pneumoniae
Outline: as §1

[5] = tested on: Salmonella typhimurium (STY) isolates; details: for MIC ATB in combination: STY S3371, AF1 @ 4 μg/mL
Outline: as §1

[6] = strain KOX UFR21 (TEM-1, CTX-M-15, OXA-48)
[7] = strain KOX UFR224 (CTX-M-15, OXA-48)

C=CC1=C(C(=O)O)N2C(=O)[C@@H](NC(=O)/C(=N\O)c3csc(N)n3)[C@H]2SC1 [CDR, Cefdinir]
1 µg/mL: MIC ATB in combination ([1]; PST UFR95) | MIC ATB in combination ([4]; KPN 131119) | MIC ATB in combination ([4]; KPN 190128) | MIC ATB in combination ([4]; KPN 190270) | MIC ATB in combination ([4]; KPN 270077) | MIC ATB in combination ([4]; KPN LIB) | MIC ATB in combination ([4]; KPN UFR22_O) | MIC ATB in combination ([4]; KPN UFR28) | MIC ATB in combination ([4]; KPN UFR80)
0.5 µg/mL: MIC ATB in combination ([3]; KOX UFR173) | MIC ATB in combination ([4]; KPN 110376) | MIC ATB in combination ([4]; KPN 260251) | MIC ATB in combination ([4]; KPN 700603) | MIC ATB in combination ([4]; KPN ARA) | MIC ATB in combination ([4]; KPN BAA-1898) | MIC ATB in combination ([4]; KPN UFR23) | MIC ATB in combination ([4]; KPN UFR215)
32 µg/mL: MIC ATB in combination ([2]; CKO UFR149) | MIC ATB in combination ([4]; KPN UFR227O)
>128 µg/mL: MIC ATB in combination ([4]; KPN UFR76)
8 µg/mL: MIC ATB in combination ([3]; KOX UFR21) | MIC ATB in combination ([4]; KPN UFR27) | MIC ATB in combination ([4]; KPN UFR77)
16 µg/mL: MIC ATB in combination ([4]; KPN 140513) | MIC ATB in combination ([4]; KPN 260252) | MIC ATB in combination ([4]; KPN UFR67) | MIC ATB in combination ([4]; KPN UFR79) | MIC ATB in combination ([4]; KPN UFR81) | MIC ATB in combination ([4]; KPN UFR222)
2 µg/mL: MIC ATB in combination ([1]; PST UFR235) | MIC ATB in combination ([2]; CKO ROU) | MIC ATB in combination ([4]; KPN UFR65) | MIC ATB in combination ([4]; KPN UFR66) | MIC ATB in combination ([4]; KPN UFR68) | MIC ATB in combination ([4]; KPN UFR220) | MIC ATB in combination ([4]; KPN UFR221)
128 µg/mL: MIC ATB in combination ([4]; KPN UFR78)
> 256 µg/mL: MIC ([2]; strain CKO ROU (TEM-1, SHV-12, CTX-M-15, OXA-1, OXA-48)) | MIC ([2]; strain CKO UFR150 (TEM-1, OXA-48)) | MIC [3, 6] | MIC ([3]; strain KOX UFR223 (SHV-11, OXA-48)) | MIC [3, 7]
4 µg/mL: MIC ATB in combination ([2]; CKO UFR150) | MIC ATB in combination ([4]; KPN UFR24)
<=0.25 μg/mL: MIC ATB in combination ([1]; PST UFR94) | MIC ATB in combination ([3]; KOX UFR223) | MIC ATB in combination ([3]; KOX UFR224) | MIC ATB in combination ([4]; KPN 6299) | MIC ATB in combination ([4]; KPN 160143) | MIC ATB in combination ([4]; KPN 190425) | MIC ATB in combination ([4]; KPN 190551) | MIC ATB in combination ([4]; KPN 200047) | MIC ATB in combination ([4]; KPN 200327) | MIC ATB in combination ([4]; KPN 260376) | MIC ATB in combination ([4]; KPN UFR25) | MIC ATB in combination ([4]; KPN UFR216) | MIC ATB in combination ([4]; KPN UFR217) | MIC ATB in combination ([4]; KPN UFR219) | MIC ATB in combination [5]

CO/N=C(\C(=O)N[C@@H]1C(=O)N2C(C(=O)O)=C(COC(N)=O)CS[C@H]12)c1ccco1 [FUR, Cefuroxime]
>128 µg/mL: MIC ATB in combination ([4]; KPN UFR76) | MIC ATB in combination ([4]; KPN UFR78)
2 µg/mL: MIC ATB in combination ([3]; KOX UFR223) | MIC ATB in combination ([3]; KOX UFR224) | MIC ATB in combination ([4]; KPN 200047) | MIC ATB in combination ([4]; KPN 200327) | MIC ATB in combination ([4]; KPN 260376) | MIC ATB in combination ([4]; KPN UFR217)
8 µg/mL: MIC ATB in combination ([1]; PST UFR94) | MIC ATB in combination ([1]; PST UFR235) | MIC ([3]; strain KOX UFR223 (SHV-11, OXA-48), read-out: MIC) | MIC ATB in combination ([4]; KPN 131119) | MIC ATB in combination ([4]; KPN 260251) | MIC ATB in combination ([4]; KPN LIB) | MIC ATB in combination ([4]; KPN UFR22_O) | MIC ATB in combination ([4]; KPN UFR68) | MIC ATB in combination ([4]; KPN UFR219) | MIC ([4]; strain KPN UFR23 (TEM-1, SHV-1, OXA-48), ATB alone, read-out: MIC)
16 µg/mL: MIC ATB in combination ([3]; KOX UFR21) | MIC ATB in combination ([4]; KPN 6299) | MIC ATB in combination ([4]; KPN 190128) | MIC ATB in combination ([4]; KPN 190270) | MIC ATB in combination ([4]; KPN 270077) | MIC ATB in combination ([4]; KPN 700603) | MIC ATB in combination ([4]; KPN ARA) | MIC ATB in combination ([4]; KPN UFR24) | MIC ATB in combination ([4]; KPN UFR65) | MIC ATB in combination ([4]; KPN UFR80) | MIC ATB in combination ([4]; KPN UFR215) | MIC ATB in combination ([4]; KPN UFR220) | MIC ([4]; strain KPN LIB (SHV-11, OXA-48), ATB alone, read-out: MIC)
64 µg/mL: MIC ([2]; strain CKO ROU (TEM-1, SHV-12, CTX-M-15, OXA-1, OXA-48), read-out: MIC) | MIC ([2]; strain CKO UFR150 (TEM-1, OXA-48), read-out: MIC) | MIC ATB in combination ([4]; KPN UFR222) | MIC ATB in combination ([4]; KPN UFR227O) | MIC ([4]; strain KPN UFR77 (CMY-2), ATB alone, read-out: MIC)
> 512 µg/mL: MIC ([4]; BAA1898, strain KPN BAA-1898 (TEM-1, SHV-11, SHV-12, KPC-2), ATB alone, read-out: MIC) | MIC ([4]; strain KPN 6299 (TEM-1, SHV-11, OXA-163), ATB alone, read-out: MIC)
> 256 µg/mL: MIC ([1]; strain PST UFR94 (CTX-M-14)) | MIC ([2]; strain CKO UFR149 (OXA-48)) | MIC [3, 6] | MIC ([3]; strain KOX UFR173 (OXY2-2), read-out: MIC) | MIC [3, 7] | MIC [4]
32 µg/mL: MIC ATB in combination ([1]; PST UFR95) | MIC ATB in combination ([2]; CKO ROU) | MIC ATB in combination ([2]; CKO UFR150) | MIC ATB in combination ([4]; KPN 140513) | MIC ATB in combination ([4]; KPN 260252) | MIC ATB in combination ([4]; KPN UFR27) | MIC ATB in combination ([4]; KPN UFR66) | MIC ATB in combination ([4]; KPN UFR67) | MIC ATB in combination ([4]; KPN UFR77) | MIC ATB in combination ([4]; KPN UFR79) | MIC ATB in combination ([4]; KPN UFR81) | MIC ([4]; strain KPN 700603 (SHV-18, OXA-2), ATB alone, read-out: MIC) | MIC ([4]; strain KPN UFR22_O (TEM-1, SHV-1, OXA-48), ATB alone, read-out: MIC) | MIC ([4]; strain KPN UFR80 (SHV-11, DHA-1, OXA-1), ATB alone, read-out: MIC) | MIC ([5]; Salmonella enterica, TYPHIMURIUM, strain STY S3371 (OXA-1), ATB alone)
4 µg/mL: MIC ATB in combination ([3]; KOX UFR173) | MIC ATB in combination ([4]; KPN 110376) | MIC ATB in combination ([4]; KPN 160143) | MIC ATB in combination ([4]; KPN 190425) | MIC ATB in combination ([4]; KPN 190551) | MIC ATB in combination ([4]; KPN BAA-1898) | MIC ATB in combination ([4]; KPN UFR23) | MIC ATB in combination ([4]; KPN UFR25) | MIC ATB in combination ([4]; KPN UFR28) | MIC ATB in combination ([4]; KPN UFR216) | MIC ATB in combination ([4]; KPN UFR221) | MIC ATB in combination [5]
256 µg/mL: MIC ([1]; strain PST UFR235 (VEB-1))
128 µg/mL: MIC ([1]; strain PST UFR95 (TEM-24)) | MIC ATB in combination ([2]; CKO UFR149) | MIC ([4]; strain KPN UFR24 (TEM-1, SHV-2, SHV-11, OXA-1, OXA-48, OXA-47), ATB alone, read-out: MIC)

From patent US20200017496A1 (priority 2017, published 2020)
